ChEMBL document CHEMBL2010723, “Assessment of partially deoxygenated deoxynojirimycin derivatives as glucosylceramide synthase inhibitors” (ACS Med Chem Lett, 2011)

What was measured:
Beta-glucosidase = molecular target: T1, Beta-glucosidase (Homo sapiens, UniProt Q9HCG7); experiment: Inhibition of glucosylceramidase 2 from spleen of patient with gaucher's disease by fluorimetric analysis
T1 sequence (Q9HCG7 whole entry): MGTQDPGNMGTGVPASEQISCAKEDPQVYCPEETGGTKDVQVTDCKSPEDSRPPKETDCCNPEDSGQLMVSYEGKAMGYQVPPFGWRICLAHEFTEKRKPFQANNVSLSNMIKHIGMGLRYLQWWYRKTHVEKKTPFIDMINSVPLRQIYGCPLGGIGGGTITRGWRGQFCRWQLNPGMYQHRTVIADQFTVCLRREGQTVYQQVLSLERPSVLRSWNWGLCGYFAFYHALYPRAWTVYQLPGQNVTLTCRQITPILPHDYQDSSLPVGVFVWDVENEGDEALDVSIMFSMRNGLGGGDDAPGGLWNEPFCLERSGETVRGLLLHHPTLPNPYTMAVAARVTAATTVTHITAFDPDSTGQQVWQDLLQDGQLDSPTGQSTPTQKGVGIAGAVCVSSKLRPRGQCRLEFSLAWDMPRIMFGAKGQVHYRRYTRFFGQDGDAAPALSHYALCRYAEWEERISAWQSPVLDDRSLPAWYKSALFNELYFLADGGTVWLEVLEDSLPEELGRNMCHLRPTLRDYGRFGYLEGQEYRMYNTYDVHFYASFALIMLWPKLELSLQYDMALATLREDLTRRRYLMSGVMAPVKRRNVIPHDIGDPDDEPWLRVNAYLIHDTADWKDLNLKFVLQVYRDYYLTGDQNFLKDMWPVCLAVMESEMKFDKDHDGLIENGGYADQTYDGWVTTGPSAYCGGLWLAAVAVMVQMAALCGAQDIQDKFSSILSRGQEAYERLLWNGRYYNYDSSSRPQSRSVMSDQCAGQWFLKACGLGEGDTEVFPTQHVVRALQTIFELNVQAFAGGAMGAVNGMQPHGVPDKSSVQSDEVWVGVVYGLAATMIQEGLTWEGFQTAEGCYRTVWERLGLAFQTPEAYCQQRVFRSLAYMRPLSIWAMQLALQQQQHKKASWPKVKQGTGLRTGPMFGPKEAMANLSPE

[1] = Inhibition of recombinant glucosylceramidase 1 using 4-methylumbelliferyl-B-glucoside as substrate by fluorimetric analysis
[2] = molecular target: T2, Ceramide glucosyltransferase (Mus musculus, UniProt O88693); experiment: Inhibition of glucosylceramide synthase in mouse RAW cells preincubated for 15 mins followed by substrate addition and measured after 1 hr by fluorescence scanner; type: cell-based
T2 sequence (O88693 whole entry): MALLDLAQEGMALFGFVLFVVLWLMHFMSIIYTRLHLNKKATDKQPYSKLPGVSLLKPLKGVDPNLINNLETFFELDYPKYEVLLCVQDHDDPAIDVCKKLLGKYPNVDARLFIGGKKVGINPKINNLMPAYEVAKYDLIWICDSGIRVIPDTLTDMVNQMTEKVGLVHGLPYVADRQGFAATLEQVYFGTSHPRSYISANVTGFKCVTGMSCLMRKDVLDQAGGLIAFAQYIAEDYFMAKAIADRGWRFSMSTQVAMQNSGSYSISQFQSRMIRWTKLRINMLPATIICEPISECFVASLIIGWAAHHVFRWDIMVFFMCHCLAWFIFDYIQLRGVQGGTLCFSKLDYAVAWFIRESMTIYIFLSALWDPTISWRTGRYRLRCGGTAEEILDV

Compound	IC50 (Beta-glucosidase)	IC50 [1]	IC50 [2]
CCCCN1CC=C[C@@H](O)[C@@H]1CO	> 500 µM	80 µM	> 10 µM
OC[C@H]1[C@@H](O)[C@@H](O)CCN1CCCCCOCC12CC3CC(CC(C3)C1)C2	75 µM	200 µM	> 10 µM
CCCCN1CC[C@@H](O)[C@@H](O)[C@H]1CO	> 1000 µM	> 1000 µM	> 10 µM
CCCCN1CC[C@H](O)[C@H](O)[C@H]1CO	1000 µM	> 1000 µM	> 10 µM
CCCCN1CC[C@@H](O)[C@H](O)[C@H]1CO	> 1000 µM	> 1000 µM	> 10 µM
CCCCN1CC[C@H](O)[C@@H](O)[C@@H]1CO	> 1000 µM	> 1000 µM	> 10 µM
OC[C@H]1NCCC[C@H]1O	> 1000 µM	> 1000 µM	> 10 µM
OC[C@@H]1[C@@H](O)C=CCN1CCCCCOCC12CC3CC(CC(C3)C1)C2	30 µM	50 µM	> 10 µM
CCCCN1CC=C[C@H](O)[C@@H]1CO	25 µM	> 1000 µM	> 10 µM
CCCCN1CCC[C@@H](O)[C@H]1CO	> 1000 µM	> 1000 µM	> 10 µM
OC[C@@H]1NCC[C@H](O)[C@H]1O	> 1000 µM	> 1000 µM	> 10 µM
OC[C@@H]1[C@@H](O)[C@H](O)CCN1CCCCCOCC12CC3CC(CC(C3)C1)C2	1 µM	10 µM	> 10 µM
CCCCN1CCC[C@@H](O)[C@@H]1CO	> 500 µM	100 µM	> 10 µM
OC[C@@H]1[C@@H](O)[C@@H](O)CCN1CCCCCOCC12CC3CC(CC(C3)C1)C2	25 µM	20 µM	> 10 µM
OC[C@@H]1[C@@H](O)CCCN1CCCCCOCC12CC3CC(CC(C3)C1)C2	100 µM	175 µM	> 10 µM
OC[C@@H]1[C@H](O)[C@@H](O)CCN1CCCCCOCC12CC3CC(CC(C3)C1)C2	3 µM	80 µM	> 10 µM
CCCCN1CC[C@@H](O)[C@H](O)[C@@H]1CO	20 µM	> 1000 µM	> 10 µM
OC[C@H]1[C@@H](O)CCCN1CCCCCOCC12CC3CC(CC(C3)C1)C2	500 µM		> 10 µM
OC[C@H]1[C@H](O)[C@@H](O)CCN1CCCCCOCC12CC3CC(CC(C3)C1)C2	20 µM	200 µM	> 10 µM
OC[C@H]1NCC=C[C@@H]1O	> 1000 µM	> 1000 µM	> 10 µM
OC[C@@H]1NCC=C[C@@H]1O	> 1000 µM	> 1000 µM	> 10 µM
OC[C@@H]1NCCC[C@H]1O	> 1000 µM	400 µM	> 10 µM
O[C@H]1[C@H](O)CN(CCCCCOCC23CC4CC(CC(C4)C2)C3)C[C@@H]1O	0.8 µM	2.2 µM	> 10 µM
CCCCN1CCC[C@H](O)[C@H]1CO	> 1000 µM	> 1000 µM	> 10 µM
OC[C@@H]1NCC[C@@H](O)[C@@H]1O	> 1000 µM	> 1000 µM	> 10 µM
